According to US20190208800A1, “L-GLUTAMINE IN SWINE DIETS” (The United States of America, as represented by the …, priority 2018, published 2019):
Marks after values point to notes of the source that are not given here.

Legend:
[1] = Example 2: grow-finish growth performance (d 0 to d 125) until market; assay type: in vivo, pigs
Source text: (§1) In a larger example, three groups of post-weaning and post-transport pigs (each group n=160, total of 480 pigs, 50% male and 50% female) were fed on different diets to assess the effects of L-glutamine as a supplement in the diet in a production environment. The diets consisted primarily of corn and soybean meal as in Example 1. One group (Group A) was fed a standard swine feed in two phases containing a standard antibiotic supplement (400 g chlortetracycline and 35 g tiamulin/ton of feed), another group (GLN) was fed a standard swine feed in two phases containing 0.20% L-glutamine, and a third group (NA) was given a standard swine diet in two phases containing no antibiotics or immunomodulators. Otherwise, the diets for groups A, GLN, and NA were the same. The disparate diets were given to the different groups for 14 days post-weaning and transport, following which all three groups were on a common diet for the remainder of the trial. This experiment was conducted from Jul. 28, 2016 to Sep. 21, 2017. The pigs were followed all the way through market (i.e., day 125 post-weaning, being about 6 months of age). As stated above, the pigs were followed through to market-readiness at six months of age.

enteric disease = test: Example 2: percentage of pigs treated for enteric disease (FIG. 1); assay type: in vivo; conditions: 0.20% L-glutamine diet; Period 1 (d 0-14) and Period 2 (d 15-34) post-weaning and transport
Source text: Period 1 is 0-14 days post-weaning and transport and Period 2 is 15-34 days post-weaning and transport. Error bars represent ±1 standard error of the mean (SEM). Letters (a, b) indicate statistically significant differences (P≤0.05) between dietary treatments and symbols (*, #) indicate statistically significant differences (P≤0.05) between periods. In a larger example, three groups of post-weaning and post-transport pigs (each group n=160, total of 480 pigs, 50% male and 50% female) were fed on different diets to assess the effects of L-glutamine as a supplement in the diet in a production environment. The diets consisted primarily of corn and soybean meal as in Example 1. One group (Group A) was fed a standard swine feed in two phases containing a standard antibiotic supplement (400 g chlortetracycline and 35 g tiamulin/ton of feed), another group (GLN) was fed a standard swine feed in two phases containing 0.20% L-glutamine, and a third group (NA) was given a standard swine diet in two phases containing no antibiotics or immunomodulators. Otherwise, the diets for groups A, GLN, and NA were the same. […] Data were analyzed on a per pen basis and the assumptions of normality of error, homogeneity of variance, and linearity were confirmed post-hoc.

[2] = system: tumor necrosis factor alpha (TNFα); test: Example 3: tumor necrosis factor alpha in pigs' blood (FIG. 2); assay type: in vivo; conditions: blood samples; diets for 14 days after weaning and 12 h transport; vs no antibiotics
Description: Error bars represent ±1 standard error of the mean (SEM). Letters (a, b) indicate statistically significant differences (P≤0.05) between dietary treatments. In a similar experiment to the one above in Example 2, an L-glutamine-containing diet was evaluated for pigs to determine how it affected their general health and productivity. The experiment was conducted under commercial production conditions using a total of 480 mixed-sex (50% male and 50% female) pigs. Pigs were weaned and then transported for 12 hours to the nursery facility. Once pigs arrived at the nursery facility they were provided 1 of 3 separate diets, those being no antibiotics or L-glutamine (NA); 0.20% L-glutamine (GLN); or dietary antibiotics (A) for 14 days. After the 14-day period all pigs were provided the same antibiotic-free diets until they reached market weight. Blood and intestinal samples were collected from pigs to determine whole body immune function and intestinal integrity. […] Specifically, blood samples from the pigs were tested for tumor necrosis factor alpha (TNFα), a pro-inflammatory cytokine, elevated levels of which can be indicative of systemic inflammation and immune system activation which can be detrimental to the health and productivity of pigs. A reduction in circulating TNFα would be indicative of a decreased whole body inflammatory response in pigs. […]

[3] = Example 1: small-scale simulated transport of post-weaning pigs, 14-day diets; assay type: in vivo; conditions: 0.20% L-glutamine diet, 14 days post-weaning and simulated transport
Source text: In a small-scale example, three groups of post-weaning pigs were subjected to a simulated transport experience immediately post-weaning and then provided different diets to assess the effects of L-glutamine as a supplement in the diet. The details of the procedure are given in full in “Evaluating the behavior, growth performance, immune parameters, and intestinal morphology of weaned piglets after simulated transport and heat stress when antibiotics are eliminated from the diet or replaced with L-glutamine” by Johnson, J. S. and Lay Jr., D. C. in the Journal of Animal Science (2017, 95, 91-102), which is incorporated herein in its entirety by reference. In this experiment, the piglets were fed on disparate feeds for 14 days post-weaning and simulated transport, and then euthanized by CO2 exposure and exsanguination.

[4] = Example 2: nursery growth performance (d 0 to d 34 post-weaning) in a production environment; assay type: in vivo, pigs
Source text: as §1, with “age).” for “age). As stated above, the pigs were followed through to market-readiness at six months of age.”

intestines = test: Example 3: ratio of villus height to crypt depth in the intestines (FIG. 3); assay type: in vivo, pigs; conditions: intestinal samples; diets for 14 days after weaning and 12 h transport; compared to NA
Description: Error bars represent ±1 standard error of the mean (SEM). Letters (x, y) indicate statistical tendencies (0.05<P≤0.10) between dietary treatments. In a similar experiment to the one above in Example 2, an L-glutamine-containing diet was evaluated for pigs to determine how it affected their general health and productivity. The experiment was conducted under commercial production conditions using a total of 480 mixed-sex (50% male and 50% female) pigs. Pigs were weaned and then transported for 12 hours to the nursery facility. Once pigs arrived at the nursery facility they were provided 1 of 3 separate diets, those being no antibiotics or L-glutamine (NA); 0.20% L-glutamine (GLN); or dietary antibiotics (A) for 14 days. After the 14-day period all pigs were provided the same antibiotic-free diets until they reached market weight. Blood and intestinal samples were collected from pigs to determine whole body immune function and intestinal integrity. […] In particular, intestinal samples from pigs were analyzed to determine the ratio of villus height to crypt depth in the intestines. Villus height to crypt depth ratio is a morphological measure of intestinal health and a greater ratio indicates an improvement in intestinal health. […] Improved intestinal health is essential for nutrient absorption and preventing pathogens from entering the body. […]

[5] = d 0 to 14 post-weaning, diet treatment period
[6] = d 0 to 34 post-weaning, overall nursery
[7] = d 15 to 34 post-weaning, common diet period

NC(=O)CC[C@H](N)C(=O)O [GLN, L-glutamine]
growth performance of piglets through the end of the nursery phase ([1]; body weight at start of grow-finish phase vs no antibiotic pigs): effective in improving the growth performance of piglets through the end of the nursery phase
Feed efficiency, gain: feed ([1]; d 0 to 62 of grow-finish phase, common diet): 0.46
Feed efficiency, gain: feed ([1]; d 0 to 125 of grow-finish phase): 0.38
d 62 body weight ([1]; d 62 of grow-finish phase): 65.02 kg
Feed efficiency, gain: feed ([1]; d 62 to 125 of grow-finish phase, common diet): 0.31
Final body weight ([1]; d 125, market): 121.73 kg
Initial body weight ([1]; start of grow-finish phase (d 0), diets given 14 days post-weaning, then common diet): 17.49^a kg
requirement for injectable therapeutic antibiotics for enteric disease (enteric disease): the same requirement for injectable therapeutic antibiotics for enteric disease as the piglets fed the antibiotics
circulating TNFα [2]: reduced at a similar level
effectiveness in other parameters ([3]; vs antibiotics): approximately as effective as the antibiotics
productivity ([3]; vs non-antibiotic and antibiotic group): better productivity compared to the non-antibiotic and antibiotic group
overall nursery phase performance ([4]; d 0-34 post-weaning, vs antibiotic pigs): performed similarly to the antibiotic pigs
Average daily feed intake [4, 5]: 272.06^a g
Average daily gain [4, 5]: 210.78^a g
Feed efficiency, gain: feed [4, 5]: 0.79^ab
Average daily feed intake [4, 6]: 517.08^xy g
Average daily gain [4, 6]: 352.73^ab g
Feed efficiency, gain: feed [4, 6]: 0.71^ab
d 14 body weight ([4]; d 14 post-weaning): 8.50^a kg
Average daily feed intake [4, 7]: 680.43 g
Average daily gain [4, 7]: 447.36 g
Feed efficiency, gain: feed [4, 7]: 0.66
d 34 body weight ([4]; d 34 post-weaning): 17.49^ab kg
feed intake, average daily gain, and final body weight compared to the non-antibiotic group ([4]; diet treatment period, d 0-14 post-weaning): significantly higher
villus height to crypt depth ratio (intestines): greater
